{
  "source": "patent EP3045477B1",
  "about": "“Method for reducing the migration of photoinitiators and their degradation products in UV curable coatings” (IOT - Innovative Oberflächentechnologien GmbH, priority 2015, dated 2016)",
  "origin": "cited, not measured here",
  "settings": "listed limit, Verordnung (EU) 10/2011",
  "data": [
    {"smiles": "Cc1cc(C(C)(C)C)c(O)c(C(C)(C)C)c1", "note": "[Butylhydroxy toluol, Butylhydroxytoluol]", "values": [
      {"measurement": "spezifische Migrationslimit", "result": 3, "unit": "mg/kg"}
    ]}
  ]
}
